{
  "source": "patent US11345669B2",
  "about": "“Urea derivatives and methods of use thereof” (NodThera Limited, priority 2017, dated 2022)",
  "system": "IL1-β release upon NLRP3 activation in peripheral blood mononuclear cells (PBMC)",
  "assay": "PBMC IC50 Determination Assay",
  "format": "cell-based",
  "conditions": "Homo sapiens; PBMC from buffy coats, LPS 3 h, compound 30 min, then ATP (5 mM) or nigericin (10 μM) for 1 h; IL-1β in media by ELISA; read-out: PBMCs, IC50",
  "protocol": "PBMC IC50 Determination Assay\nThe compounds of the present disclosure were tested for their inhibitory activity against IL1-β release upon NLRP3 activation in peripheral blood mononuclear cells (PBMC).\nIsolated cells were seeded into the wells of a 96-well plate and incubated for 3 h with lipopolysaccharide (LPS). Following medium exchange, the compounds of the present disclosure were added (a single compound per well) and the cells were incubated for 30 min. Next, the cells were stimulated either with ATP (5 mM) or nigericin (10 μM) for 1 h and the cell culture media from the wells were collected for further analysis.\nThe release of IL-1β into the media was determined by a quantitative detection of IL-1β in 5 the media using an IL-1β enzyme-linked immunosorbent assay (ELISA) Ready-SET-Go!, eBioscience cat. […] Subsequently, plates were blocked with blocking buffer for 1 h at room temperature (rt) and after washing with a buffer (PBS with 0.05% Tween-20) incubated with protein standard and culture media. […] Plates were washed and incubated with HRP-streptavidin for 30 min at rt and washed again. The signal was developed after addition of 3,39,S,59-tetramethylbenzidine-peroxidase (TMB) until color appeared and the reaction was stopped by 2 M H2SO4. A microplate spectrophotometer (BioTek) was used to detect signals with 450 nm. The detection range of IL-1β ELISA was […].",
  "note": "pIC50: −log10 of the molar value.",
  "data": [
    {"compound": "COC(=O)C[C@@H](NC(=O)Nc1c2c(cc3c1CCC3)CCC2)C(=O)OC", "note": "[Example 2W, 1,4-dimethyl(2R)-2-{[(1,2,3,5,6,7-hexahydro-s-indacen-4-yl)carbamoyl]amino}butanedioate]", "values": [
      {"measurement": "pIC50", "result": 5.54}
    ]},
    {"compound": "COC(=O)[C@@H](Cc1cncc(OC)c1)NC(=O)Nc1c2c(cc3c1CCC3)CCC2", "note": "[Example 2WW, Methyl (2R)-2-{[(1,2,3,5,6,7-hexahydro-s-indacen-4-yl)carbamoyl]amino}-3-(5-methoxypyridin-3-yl)propanoate]", "values": [
      {"measurement": "pIC50", "result": 6.35}
    ]},
    {"compound": "CCOC(=O)CNC(=O)Nc1c2c(cc3c1CCC3)CCC2", "note": "[Example 2X, ethyl 2-{[(1,2,3,5,6,7-hexahydro-s-indacen-4-yl)carbamoyl]amino}acetate]", "values": [
      {"measurement": "pIC50", "result": 5.82}
    ]},
    {"compound": "CCOC(=O)C(Cc1nc(C)no1)NC(=O)Nc1c2c(cc3c1CCC3)CCC2", "note": "(stereo not shown) [Example 2XX, Ethyl 2-{[(1,2,3,5,6,7-hexahydro-s-indacen-4-yl)carbamoyl]amino}-3-(3-methyl-1,2,4-oxadiazol-5-yl)propanoate]", "values": [
      {"measurement": "pIC50", "result": 5.29}
    ]},
    {"compound": "COC(=O)[C@@H](Cc1cccnn1)NC(=O)Nc1c2c(cc3c1CCC3)CCC2", "note": "[Example 2YY, Methyl (2R)-2-{[(1,2,3,5,6,7-hexahydro-s-indacen-4-yl)carbamoyl]amino}-3-(pyridazin-3-yl)propanoate]", "values": [
      {"measurement": "pIC50", "result": 5.48}
    ]},
    {"compound": "COC(=O)[C@@H](Cc1ccc(O)cc1)NC(=O)Nc1c2c(cc3c1CCC3)CCC2", "note": "[Example 2Z, methyl(2R)-2-{[(1,2,3,5,6,7-hexahydro-s-indacen-4-yl)carbamoyl]amino}-3-(4-hydroxyphenyl)propanoate]", "values": [
      {"measurement": "pIC50", "result": 7.00}
    ]},
    {"compound": "CCOC(=O)C(Cc1cnoc1)NC(=O)Nc1c2c(cc3c1CCC3)CCC2", "note": "(stereo not shown) [Example 2ZZ, Ethyl 2-{[(1,2,3,5,6,7-hexahydro-s-indacen-4-yl)carbamoyl]amino}-3-(1,2-oxazol-4-yl)propanoate]", "values": [
      {"measurement": "pIC50", "result": 5.48}
    ]}
  ]
}
